Measured values taken from patent US20020137929A1, “1 - (3-heterocyclylphenyl) isothiourea, -isourea, -guanidine and -amidine herbicidal agents” (Intellectual Property Department, BASF Aktiengesellschaft, priority 1998, published 2002).

Columns and labels:
[1] = system: ECHORC (Watergrass (Calif.)); assay: Preemergence weed control under flooded paddy conditions; assay type: in vivo, Echinochloa oryzoides; settings: rated 3-4 weeks after treatment
Summary of the method: (§1)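 Herbicidal effect is scored visually on a 0-9 scale against an untreated control, three to four weeks after compounds are pipetted into the flood water (1.5 to 3 cm deep) over seeds planted in silt loam at 0.5 cm depth. Rates: about 0.0313 to 0.500 kg/ha.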

ZEAMX (Corn, Field) = assay: Preemergence herbicidal evaluation; assay type: in vivo, Zea mays; settings: rated 4-5 weeks after treatment
Summary of the method: (§2)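 Scores use a 0–9 visual scale covering stand, vigor, malformation, size and chlorosis relative to controls, rated four to five weeks after treatment. Before emergence, soil-planted seeds were sprayed with compound in aqueous acetone at roughly 0.0156–0.500 kg/ha and held in the greenhouse.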

[2] = system: IPOHE (Morningglory, Ivyleaf); assay: Postemergence herbicidal evaluation; assay type: in vivo, Ipomoea hederacea; settings: for herbicidal rating IPOHE: postemergence
Summary of the method: (§3)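 Visual 0–9 rating versus control (stand, vigor, malformation, size, chlorosis, overall appearance), taken four to five weeks post-spray. Two-week-old seedlings received roughly 0.0156–0.500 kg/ha active in acetone/water (50/50) with 0.5% TWEEN 20 via nozzle at 40 psi.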

ABUTH (Velvetleaf) = assay: Preemergence herbicidal evaluation; assay type: in vivo, Abutilon theophrasti; settings: rated 4-5 weeks after treatment
Summary of the method: as §2

MOOVA (Monochoria) = assay: Preemergence weed control under flooded paddy conditions; assay type: in vivo, Monochoria vaginalis; settings: rated 3-4 weeks after treatment
Summary of the method: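 Values are visual 0-9 scores against a control for a preemergence application into paddy flood water at about 0.0313 to 0.500 kg/ha. Greenhouse duration was three to four weeks.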

[3] = system: IPOHE (Morningglory, Ivyleaf); assay: Preemergence herbicidal evaluation; assay type: in vivo, Ipomoea hederacea; settings: rated 4-5 weeks after treatment
Summary of the method: as §2

[4] = system: TRZAWR (Wheat, Winter, cv Riband); assay: Postemergence herbicidal evaluation; assay type: in vivo, Triticum aestivum; settings: for herbicidal rating TRZAWR: postemergence
Summary of the method: as §3

GALAP (Galium) = assay: Postemergence herbicidal evaluation; assay type: in vivo, Galium aparine; settings: for herbicidal rating GALAP: postemergence
Summary of the method: as §3

CYPIR (Rice Flatsedge) = assay: Preemergence weed control under flooded paddy conditions; assay type: in vivo, Cyperus iria; settings: rated 3-4 weeks after treatment
Summary of the method: as §1

SETVI (Foxtail, Green) [5] = assay: Postemergence herbicidal evaluation; assay type: in vivo, Setaria viridis; settings: for herbicidal rating SETVI: postemergence
Summary of the method: as §3

ECHCG (Barnyardgrass) = assay: Preemergence herbicidal evaluation; assay type: in vivo, Echinochloa crus-galli; settings: rated 4-5 weeks after treatment
Summary of the method: as §2

SETVI (Foxtail, Green) [6] = assay: Preemergence herbicidal evaluation; assay type: in vivo, Setaria viridis; settings: rated 4-5 weeks after treatment
Summary of the method: as §2

[7] = rate 0.0156 kg/ha, rating scale 0-9
[8] = rate 0.0313 kg/ha, rating scale 0-9
[9] = rate 0.0625 kg/ha, rating scale 0-9
[10] = rate 0.1250 kg/ha, rating scale 0-9
[11] = rate 0.2500 kg/ha, rating scale 0-9

## CCCN1C(=O)CSC1=Nc1cc(-n2c(=O)cc(C(F)(F)F)n(C)c2=O)c(F)cc1Cl [Compound 171, 3-{4-Chloro-2-fluoro-5-[(4-oxo-3-propyl-2-thiazolidinylidene)amino]phenyl}-1-methyl-6-(trifluoromethyl)-2,4 (1H, 3H)-pyrimidinedione]
[1]; 0.0313 kg/ha
  herbicidal effect rating, ECHORC: 8.0
[1]; 0.0625 kg/ha
  herbicidal effect rating, ECHORC: 9.0
[1]; 0.1250 kg/ha
  herbicidal effect rating, ECHORC: 9.0
[1]; 0.2500 kg/ha
  herbicidal effect rating, ECHORC: 9.0
ZEAMX (Corn, Field); 0.0156 kg/ha
  Preemergence herbicidal rating ZEAMX: 2.0
ZEAMX (Corn, Field); 0.0313 kg/ha
  Preemergence herbicidal rating ZEAMX: 6.0
ZEAMX (Corn, Field); 0.0625 kg/ha
  Preemergence herbicidal rating ZEAMX: 8.0
ZEAMX (Corn, Field); 0.1250 kg/ha
  Preemergence herbicidal rating ZEAMX: 8.0
ZEAMX (Corn, Field); 0.2500 kg/ha
  Preemergence herbicidal rating ZEAMX: 9.0
[2]; Rate 0.0156 kg/ha
  Postemergence herbicidal rating IPOHE: 9.0
[2]; Rate 0.0313 kg/ha
  Postemergence herbicidal rating IPOHE: 9.0
[2]; rate 0.0625 kg/ha
  herbicidal rating IPOHE: 9.0
ABUTH (Velvetleaf); 0.0156 kg/ha
  Preemergence herbicidal rating ABUTH: 9.0
ABUTH (Velvetleaf); 0.0313 kg/ha
  Preemergence herbicidal rating ABUTH: 9.0
ABUTH (Velvetleaf); 0.0625 kg/ha
  Preemergence herbicidal rating ABUTH: 9.0
ABUTH (Velvetleaf); 0.1250 kg/ha
  Preemergence herbicidal rating ABUTH: 9.0
ABUTH (Velvetleaf); 0.2500 kg/ha
  Preemergence herbicidal rating ABUTH: 9.0
MOOVA (Monochoria); 0.0313 kg/ha
  herbicidal effect rating, MOOVA: 9.0
MOOVA (Monochoria); 0.0625 kg/ha
  herbicidal effect rating, MOOVA: 9.0
MOOVA (Monochoria); 0.1250 kg/ha
  herbicidal effect rating, MOOVA: 9.0
MOOVA (Monochoria); 0.2500 kg/ha
  herbicidal effect rating, MOOVA: 9.0
[3]; 0.0156 kg/ha
  Preemergence herbicidal rating IPOHE: 2.0
[3]; 0.0313 kg/ha
  Preemergence herbicidal rating IPOHE: 3.0
[3]; 0.0625 kg/ha
  Preemergence herbicidal rating IPOHE: 9.0
[3]; 0.1250 kg/ha
  Preemergence herbicidal rating IPOHE: 9.0
[3]; 0.2500 kg/ha
  Preemergence herbicidal rating IPOHE: 9.0
[4]; Rate 0.0156 kg/ha
  Postemergence herbicidal rating TRZAWR: 4.0
[4]; Rate 0.0313 kg/ha
  Postemergence herbicidal rating TRZAWR: 5.0
[4]; rate 0.0625 kg/ha
  herbicidal rating TRZAWR: 6.0
GALAP (Galium); Rate 0.0156 kg/ha
  Postemergence herbicidal rating GALAP: 3.0
GALAP (Galium); Rate 0.0313 kg/ha
  Postemergence herbicidal rating GALAP: 6.0
GALAP (Galium); rate 0.0625 kg/ha
  herbicidal rating GALAP: 7.0
CYPIR (Rice Flatsedge); 0.0313 kg/ha
  herbicidal effect rating, CYPIR: 3.0
CYPIR (Rice Flatsedge); 0.0625 kg/ha
  herbicidal effect rating, CYPIR: 9.0
CYPIR (Rice Flatsedge); 0.1250 kg/ha
  herbicidal effect rating, CYPIR: 9.0
CYPIR (Rice Flatsedge); 0.2500 kg/ha
  herbicidal effect rating, CYPIR: 9.0
SETVI (Foxtail, Green) [5]; Rate 0.0156 kg/ha
  Postemergence herbicidal rating SETVI: 7.0
SETVI (Foxtail, Green) [5]; Rate 0.0313 kg/ha
  Postemergence herbicidal rating SETVI: 7.0
SETVI (Foxtail, Green) [5]; rate 0.0625 kg/ha
  herbicidal rating SETVI: 9.0
ECHCG (Barnyardgrass); 0.0156 kg/ha
  Preemergence herbicidal rating ECHCG: 0.0
ECHCG (Barnyardgrass); 0.0313 kg/ha
  Preemergence herbicidal rating ECHCG: 4.0
ECHCG (Barnyardgrass); 0.0625 kg/ha
  Preemergence herbicidal rating ECHCG: 8.0
ECHCG (Barnyardgrass); 0.1250 kg/ha
  Preemergence herbicidal rating ECHCG: 9.0
ECHCG (Barnyardgrass); 0.2500 kg/ha
  Preemergence herbicidal rating ECHCG: 9.0
SETVI (Foxtail, Green) [6]; 0.0156 kg/ha
  Preemergence herbicidal rating SETVI: 7.0
SETVI (Foxtail, Green) [6]; 0.0313 kg/ha
  Preemergence herbicidal rating SETVI: 9.0
SETVI (Foxtail, Green) [6]; 0.0625 kg/ha
  Preemergence herbicidal rating SETVI: 9.0
SETVI (Foxtail, Green) [6]; 0.1250 kg/ha
  Preemergence herbicidal rating SETVI: 9.0
SETVI (Foxtail, Green) [6]; 0.2500 kg/ha
  Preemergence herbicidal rating SETVI: 9.0

## COc1ccc(CN2C(=O)CSC2=Nc2cc(-n3c(=O)cc(C(F)(F)F)n(C)c3=O)c(F)cc2Cl)c(OC)c1 [Compound 139, 3-{4-Chloro-5-{[3-(2,4-dimethoxybenzyl)-4-oxo-2-thiazolidinylidene]amino}-2-fluorophenyl}-1-methyl-6-(trifluoromethyl)-2,4(1H,3H)-pyrimidinedione]
[1]; 0.0313 kg/ha
  herbicidal effect rating, ECHORC: 6.0
[1]; 0.0625 kg/ha
  herbicidal effect rating, ECHORC: 7.0
[1]; 0.1250 kg/ha
  herbicidal effect rating, ECHORC: 7.0
[1]; 0.2500 kg/ha
  herbicidal effect rating, ECHORC: 7.0
ZEAMX (Corn, Field); [7]
  Preemergence herbicidal rating ZEAMX: 0.0
ZEAMX (Corn, Field); [8]
  Preemergence herbicidal rating ZEAMX: 0.0
ZEAMX (Corn, Field); [9]
  Preemergence herbicidal rating ZEAMX: 0.0
ZEAMX (Corn, Field); [10]
  Preemergence herbicidal rating ZEAMX: 0.0
ZEAMX (Corn, Field); [11]
  Preemergence herbicidal rating ZEAMX: 1.0
[2]; rate 0.0156 kg/ha
  herbicidal rating IPOHE: 9.0
[2]; rate 0.0313 kg/ha
  herbicidal rating IPOHE: 9.0
[2]; rate 0.0625 kg/ha
  herbicidal rating IPOHE: 5.0
ABUTH (Velvetleaf); [7]
  Preemergence herbicidal rating ABUTH: 0.0
ABUTH (Velvetleaf); [8]
  Preemergence herbicidal rating ABUTH: 0.0
ABUTH (Velvetleaf); [9]
  Preemergence herbicidal rating ABUTH: 0.0
ABUTH (Velvetleaf); [10]
  Preemergence herbicidal rating ABUTH: 9.0
ABUTH (Velvetleaf); [11]
  Preemergence herbicidal rating ABUTH: 9.0
MOOVA (Monochoria); 0.0313 kg/ha
  herbicidal effect rating, MOOVA: 4.0
MOOVA (Monochoria); 0.0625 kg/ha
  herbicidal effect rating, MOOVA: 5.0
MOOVA (Monochoria); 0.1250 kg/ha
  herbicidal effect rating, MOOVA: 7.0
MOOVA (Monochoria); 0.2500 kg/ha
  herbicidal effect rating, MOOVA: 7.0
[3]; [7]
  Preemergence herbicidal rating IPOHE: 0.0
[3]; [8]
  Preemergence herbicidal rating IPOHE: 0.0
[3]; [9]
  Preemergence herbicidal rating IPOHE: 2.0
[3]; [11]
  Preemergence herbicidal rating IPOHE: 2.0
[4]; rate 0.0156 kg/ha
  herbicidal rating TRZAWR: 2.5
[4]; rate 0.0313 kg/ha
  herbicidal rating TRZAWR: 3.0
[4]; rate 0.0625 kg/ha
  herbicidal rating TRZAWR: 3.5
GALAP (Galium); rate 0.0156 kg/ha
  herbicidal rating GALAP: 1.0
GALAP (Galium); rate 0.0313 kg/ha
  herbicidal rating GALAP: 3.0
GALAP (Galium); rate 0.0625 kg/ha
  herbicidal rating GALAP: 4.0
CYPIR (Rice Flatsedge); 0.0313 kg/ha
  herbicidal effect rating, CYPIR: 2.0
CYPIR (Rice Flatsedge); 0.0625 kg/ha
  herbicidal effect rating, CYPIR: 4.0
CYPIR (Rice Flatsedge); 0.1250 kg/ha
  herbicidal effect rating, CYPIR: 5.0
CYPIR (Rice Flatsedge); 0.2500 kg/ha
  herbicidal effect rating, CYPIR: 6.0
SETVI (Foxtail, Green) [5]; rate 0.0156 kg/ha
  herbicidal rating SETVI: 2.0
SETVI (Foxtail, Green) [5]; rate 0.0313 kg/ha
  herbicidal rating SETVI: 2.0
SETVI (Foxtail, Green) [5]; rate 0.0625 kg/ha
  herbicidal rating SETVI: 5.0
ECHCG (Barnyardgrass); [7]
  Preemergence herbicidal rating ECHCG: 1.0
ECHCG (Barnyardgrass); [8]
  Preemergence herbicidal rating ECHCG: 0.0
ECHCG (Barnyardgrass); [9]
  Preemergence herbicidal rating ECHCG: 0.0
ECHCG (Barnyardgrass); [10]
  Preemergence herbicidal rating ECHCG: 1.0
ECHCG (Barnyardgrass); [11]
  Preemergence herbicidal rating ECHCG: 1.0
SETVI (Foxtail, Green) [6]; [7]
  Preemergence herbicidal rating SETVI: 0.0
SETVI (Foxtail, Green) [6]; [8]
  Preemergence herbicidal rating SETVI: 0.0
SETVI (Foxtail, Green) [6]; [9]
  Preemergence herbicidal rating SETVI: 0.0
SETVI (Foxtail, Green) [6]; [10]
  Preemergence herbicidal rating SETVI: 1.0
SETVI (Foxtail, Green) [6]; [11]
  Preemergence herbicidal rating SETVI: 7.0
